{"source": "patent US9987286B2", "about": "“Compositions and methods for the treatment of addiction, psychiatric disorders, and neurodegenerative disease” (Embera NeuroTherapeutics, Inc., priority 2010, dated 2018)", "key": {"[1]": {"test_system": "cocaine self-administration in rats", "assay": "Cocaine self-administration in rats, metyrapol (Example 5)", "type": "in vivo, Adult male Wistar rats", "settings": "metyrapol 25, 50, 100, 150 mg/kg ip 30 minutes before session; cocaine 0.125, 0.25 and 0.5 mg/kg/infusion", "description": "(§1) We conducted the following experiment to explore the possibility that metyrapol would decrease cocaine self-administration in an animal model. Adult male Wistar rats were trained to respond under a 2-hour multiple, alternating schedule of food reinforcement and cocaine self-administration (fixed-ratio 4) during alternating 15-minute periods. Prior to testing, the rats were exposed to multiple saline substitution and food extinction probes. On test days, rats were pretreated 30 minutes prior to the start of the behavioral session with metyrapol (25, 50, 100, and 150 mg/kg, ip.) or vehicle. Subjects were initially trained and tested with 0.25 mg/kg/infusion of cocaine and, subsequently, with 0.125 and 0.5 mg/kg/infusion."}, "[2]": {"test_system": "food-maintained responding in rats", "assay": "Food-maintained responding in rats, metyrapol (Example 5)", "type": "in vivo, Adult male Wistar rats", "settings": "metyrapol 25, 50, 100, 150 mg/kg ip", "description": "as §1"}, "[3]": {"test_system": "cocaine self-administration in rats", "assay": "Ongoing cocaine self-administration in rats (earlier experiments)", "type": "in vivo, rat", "settings": "pretreatment with the single drug", "from_the_text": "We then reduced the dose by one-half until we found a dose of each drug that no longer affected cocaine self-administration or any other observable behaviors (i.e., an ineffective dose). When we then combined the ineffective doses of the two drugs, cocaine self-administration was reduced. […] Thus, we concluded that combining drugs that affect the HPA axis through different mechanisms can produce an additive effect on cocaine reward. Furthermore, by combining these drugs at concentrations that have no effect when the drugs are administered alone, we can minimize the potential toxic side effects (e.g., excessive decreases in plasma cortisol with metyrapone and the abuse liability of benzodiazepines) that may be associated with these compounds. Accordingly, the compositions of the present invention may include combinations of therapeutic agents, one or both of which are present at a dosage level lower than that which would be required to achieve an effect had the agent been administered alone; the dosages may be additive."}, "plasma corticosterone": {"test_system": "plasma corticosterone", "assay": "Plasma corticosterone in rats (earlier experiments)", "type": "in vivo, rat", "settings": "pretreatment with metyrapone"}, "[4]": {"test_system": "cocaine self-administration in rats", "assay": "Cocaine self-administration before and after adrenalectomy, alternating schedule of cocaine and food reinforcement (Example 1)", "type": "in vivo, Male Wistar rats", "settings": "rats after bilateral adrenalectomy", "description": "Male Wistar rats were housed in an AALAC-approved animal care facility and maintained at 85-90% of their free-feeding body weights. These rats were on a reversed 12-hour light, 12-hour dark cycle from the beginning of the experimental procedures.\nA chronic indwelling jugular catheter (0.012 in i.d.×0.025 in o.d., silicone tubing) was implanted in each rat under pentobarbital anesthesia (50 mg/kg ip) with methyl atropine nitrate pretreatment (10 mg/kg ip). The animals were injected with sterile penicillin G procaine suspension (75,000 units, im) immediately before surgery and allowed 5-7 days to recover.\nAnimals were anesthetized with pentobarbital (50 mg/kg ip) with methyl atropine nitrate pretreatment (10 mg/kg ip). The adrenal glands were located through an incision and removed. The animals were injected with sterile penicillin G procaine suspension (75,000 units, im) and allowed to recover from surgery for 7 days. After ADX, the rats received drinking water containing 0.9% saline and 1.0% sucrose. Animals in the SHAM group received the same surgery except that the adrenal glands were not removed. They continued to receive tap water to drink.\nSound-attenuating operant conditioning chambers (Med-Associates, Inc.) were equipped with two response levers and a stimulus light located directly above each lever. A food pellet dispenser was located between the levers. […]"}, "plasma CORT": {"test_system": "plasma CORT", "assay": "Plasma CORT radioimmunoassay (Example 1)", "type": "in vivo, Male Wistar rats", "settings": "rats before adrenalectomy; any of the doses", "from_the_text": "(§2) Blood was collected via the implanted catheters at the end of the behavioral test sessions for the measurement of plasma CORT and […] (ACTH). The samples were kept on ice until centrifuged in a refrigerated centrifuge and the plasma collected and frozen until assayed. Plasma CORT and ACTH (ng/ml) were subsequently determined by radioimmunoassay."}, "ACTH": {"test_system": "ACTH", "assay": "Plasma ACTH radioimmunoassay (Example 1)", "type": "in vivo, Male Wistar rats", "settings": "rats before adrenalectomy; any of the doses", "from_the_text": "as §2"}, "[5]": {"test_system": "nicotine self-administration in rats", "assay": "Intravenous nicotine self-administration, fixed-ratio schedule (Example 3)", "type": "in vivo, Wistar-derived male rats", "settings": "FR1-TO-20 s; varenicline 1 mg/kg subcutaneously; reduced from 15.4±1.0", "procedure": "Wistar-derived male rats (250-300 g) were purchased from Harlan Laboratories (Livermore, Calif.), housed in groups of two, and maintained in a temperature-controlled environment on a 12 h:12 h light cycle. Before testing, animals were provided free access to food and water during a one-week habituation period, and were handled daily for several days to desensitize them to handling stress. Each rat included in the data analysis received all treatments in order to obtain reliable estimates of drug effects and decrease the impact of inter-animal variability.\nVarenicline-HCl (Ontario Chemicals), at 1 mg/kg (expressed as free base), was used as a positive control and administered subcutaneously. Nicotine hydrogen tartrate (Sigma Aldrich) was dissolved in isotonic saline at 0.3 mg/mL (expressed as free base), adjusted to pH 7.0, and diluted to deliver 0.03 mg/kg/infusion. All test compounds were administered 30 minutes prior to nicotine self-administration sessions in a volume of 1 mL/kg.\nFood training and nicotine self-administration took place in 8 standard COULBOURN® operant conditioning chambers. Each chamber was housed in a sound-attenuating chamber. Operant chambers were equipped with two levers mounted 2 cm above the floor and a cue light mounted 2 cm above the right lever (active lever) on the back wall of the chamber. […]"}, "smoking cessation": {"test_system": "smoking cessation", "settings": "cited from earlier work"}}, "data": [{"smiles": "CC(C)(c1cccnc1)C(O)c1cccnc1", "note": "(stereo not shown) [metyrapol]", "values": [{"measurement": "cocaine self-administration", "setting": "[1]", "value": "dose dependently decreased"}, {"measurement": "food-maintained responding", "setting": "[2]", "value": "not significantly affected except at the highest doses"}]}, {"smiles": "CC(C)(C(=O)c1cccnc1)c1cccnc1", "note": "[metyrapone]", "values": [{"measurement": "ongoing cocaine self-administration", "setting": "[3]", "value": "significant dose-related decreases"}, {"measurement": "plasma corticosterone", "setting": "plasma corticosterone", "value": "significant dose-related decreases"}, {"measurement": "blocking cocaine self-administration following adrenalectomy compared to pre-adrenalectomy values", "setting": "[4]", "value": "as effective, and possibly even more effective"}, {"measurement": "Corticosterone (plasma)", "setting": "plasma CORT", "value": "not changed"}, {"measurement": "ACTH (plasma)", "setting": "ACTH", "value": "not changed"}]}, {"smiles": "c1cnc2cc3c(cc2n1)[C@@H]1CNC[C@H]3C1", "note": "[varenicline]", "values": [{"measurement": "nicotine infusions during the 1-hour self-administration session", "setting": "[5]", "value": "7.7±1.2", "unit": "infusions"}, {"measurement": "efficacy for smoking cessation compared to either bupropion or nicotine replacement therapy", "setting": "smoking cessation; literature reports", "value": "increased efficacy"}, {"measurement": "quit rates after one year", "setting": "smoking cessation; smoking cessation, Nides et al. 2006", "value": 14, "unit": "%"}]}]}
